Test results taken from ChEMBL document CHEMBL3822442, “Synthesis and Pharmacological Characterization of Novel Glucagon-like Peptide-2 (GLP-2) Analogues with Low Systemic Clearance” (J Med Chem, 2016).
Calls of active or inactive are those of the source. No cut-off for these calls is given here.

What was measured:
HEK293 = assay: Selectivity ratio of EC50 for human GLP1R expressed in HEK293 cells to EC50 for human GLP2R expressed in HEK293; format: cell-based
[1] = target: Glucagon receptor (Homo sapiens) (UniProt P47871); assay: Agonist activity at human GCGR expressed in HEK293 cells up to 1000 nM after 5 hrs by luciferase reporter gene assay; format: cell-based
Chain of Glucagon receptor (Homo sapiens) (P47871 whole entry): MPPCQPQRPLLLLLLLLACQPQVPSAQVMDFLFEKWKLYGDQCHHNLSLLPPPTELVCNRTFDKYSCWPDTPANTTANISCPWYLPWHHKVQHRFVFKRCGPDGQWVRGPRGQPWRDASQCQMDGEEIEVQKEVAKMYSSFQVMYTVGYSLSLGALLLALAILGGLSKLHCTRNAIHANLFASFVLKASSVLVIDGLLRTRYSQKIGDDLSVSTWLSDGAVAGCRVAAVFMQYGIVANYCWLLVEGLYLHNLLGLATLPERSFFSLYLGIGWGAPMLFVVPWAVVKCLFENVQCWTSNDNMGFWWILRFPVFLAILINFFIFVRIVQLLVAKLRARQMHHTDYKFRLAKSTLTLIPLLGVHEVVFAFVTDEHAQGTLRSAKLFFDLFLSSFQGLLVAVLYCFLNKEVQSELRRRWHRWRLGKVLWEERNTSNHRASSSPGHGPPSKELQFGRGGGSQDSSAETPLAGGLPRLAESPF

[2] = Systemic clearance in Sprague-Dawley rat at 0.2 mg/kg, iv through cassette dosing measured up to 300 mins by LC/MS/MS analysis; format: ADME, organism-based; conditions: in vivo
[3] = target: T1, Glucagon-like peptide 2 receptor (Homo sapiens, UniProt O95838); assay: Agonist activity at human GLP2R expressed in HEK293 cells after 5 hrs by luciferase reporter gene assay; format: cell-based
T1 sequence (O95838 whole entry): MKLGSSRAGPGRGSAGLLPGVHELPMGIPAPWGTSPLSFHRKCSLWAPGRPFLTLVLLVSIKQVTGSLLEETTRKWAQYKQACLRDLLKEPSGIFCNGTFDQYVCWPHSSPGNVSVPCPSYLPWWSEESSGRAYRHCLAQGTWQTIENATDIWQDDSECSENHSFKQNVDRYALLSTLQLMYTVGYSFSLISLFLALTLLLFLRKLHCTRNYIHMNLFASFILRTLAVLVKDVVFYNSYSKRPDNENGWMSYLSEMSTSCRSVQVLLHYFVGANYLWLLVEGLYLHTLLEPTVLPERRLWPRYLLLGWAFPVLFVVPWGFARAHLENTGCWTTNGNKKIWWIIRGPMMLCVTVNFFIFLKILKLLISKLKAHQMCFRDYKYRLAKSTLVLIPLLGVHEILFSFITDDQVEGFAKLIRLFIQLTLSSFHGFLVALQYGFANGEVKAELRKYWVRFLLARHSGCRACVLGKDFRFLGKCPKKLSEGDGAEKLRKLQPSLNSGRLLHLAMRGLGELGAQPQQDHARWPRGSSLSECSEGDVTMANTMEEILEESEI

[4] = target: Glucagon receptor (Homo sapiens) (UniProt P47871); assay: Agonist activity at human GCGR expressed in HEK293 cells after 5 hrs by luciferase reporter gene assay; format: cell-based
[5] = target: T2, Glucagon-like peptide 1 receptor (Homo sapiens, UniProt P43220); assay: Agonist activity at human GLP1R expressed in HEK293 cells at 30 nM after 5 hrs by luciferase reporter gene assay; format: cell-based
T2 sequence (P43220 whole entry): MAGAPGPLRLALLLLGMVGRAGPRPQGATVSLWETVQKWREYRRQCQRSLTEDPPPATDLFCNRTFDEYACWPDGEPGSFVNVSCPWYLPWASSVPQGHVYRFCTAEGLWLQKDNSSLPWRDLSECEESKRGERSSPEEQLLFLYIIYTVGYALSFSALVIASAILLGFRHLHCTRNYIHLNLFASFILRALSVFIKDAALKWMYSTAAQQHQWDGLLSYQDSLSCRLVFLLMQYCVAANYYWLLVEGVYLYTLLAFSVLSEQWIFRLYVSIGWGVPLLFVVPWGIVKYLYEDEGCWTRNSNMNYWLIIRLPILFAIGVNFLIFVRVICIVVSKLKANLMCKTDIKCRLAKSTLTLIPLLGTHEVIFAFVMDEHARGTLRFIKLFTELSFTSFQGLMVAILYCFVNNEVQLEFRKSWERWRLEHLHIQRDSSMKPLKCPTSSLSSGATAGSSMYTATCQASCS

[6] = target: T2, Glucagon-like peptide 1 receptor; assay: Agonist activity at human GLP1R expressed in HEK293 cells after 5 hrs by luciferase reporter gene assay; format: cell-based

For `CCCCC(NC(=O)[C@H](CCC(=O)O)NC(=O)[C@H](CC(=O)O)NC(=O)[C@H](CO)NC(=O)[C@H](Cc1ccccc1)NC(=O)[C@H](CO)NC(=O)CNC(=O)[C@H](CC(=O)O)NC(=O)CNC(=O)[C@H](N)Cc1cnc[nH]1)C(=O)N[C@@H](CC(N)=O)C(=O)N[C@H](C(=O)N[C@H](C(=O)N[C@@H](CC(C)C)C(=O)N[C@@H](CC(=O)O)C(=O)NC(Cc1ccc(Cl)cc1)C(=O)N[C@H](CC(C)C)C(=O)N[C@H](C)C(=O)N[C@H](C)C(=O)N[C@H](CCCNC(=N)N)C(=O)N[C@H](CC(=O)O)C(=O)N[C@H](Cc1ccccc1)C(=O)N[C@@H](C(=O)N[C@H](CC(N)=O)C(=O)N[C@@H](Cc1c[nH]c2ccccc12)C(=O)N[C@@H](CC(C)C)C(=O)N[C@H](C(=O)N[C@@H](CCC(N)=O)C(=O)N[C@H](C(=O)N[C@H](CCCCN)C(N)=O)[C@@H](C)O)[C@H](C)CC)[C@@H](C)CC)[C@H](C)CC)[C@@H](C)O` (some centres undefined), the Ratio EC50 (HEK293) was > 4500 and the Activity [1] was “inactive”.

In the case of `CCCCC(NC(=O)[C@H](CCC(=O)O)NC(=O)[C@H](CC(=O)O)NC(=O)[C@H](CO)NC(=O)[C@H](Cc1ccccc1)NC(=O)[C@H](CO)NC(=O)CNC(=O)[C@H](CC(=O)O)NC(=O)CNC(=O)[C@H](N)Cc1cnc[nH]1)C(=O)N[C@@H](CC(N)=O)C(=O)N[C@H](C(=O)N[C@H](C(=O)N[C@@H](CC(C)C)C(=O)N[C@@H](CC(=O)O)C(=O)NC(Cc1ccc(-c2ccccc2)cc1)C(=O)N[C@H](CC(C)C)C(=O)N[C@H](C)C(=O)N[C@H](C)C(=O)N[C@H](CCCNC(=N)N)C(=O)N[C@H](CC(=O)O)C(=O)N[C@H](Cc1ccccc1)C(=O)N[C@@H](C(=O)N[C@H](CC(N)=O)C(=O)N[C@@H](Cc1c[nH]c2ccccc12)C(=O)N[C@@H](CC(C)C)C(=O)N[C@H](C(=O)N[C@@H](CCC(N)=O)C(=O)N[C@H](C(=O)N[C@H](CCCCN)C(N)=O)[C@@H](C)O)[C@H](C)CC)[C@@H](C)CC)[C@H](C)CC)[C@@H](C)O` (some centres undefined), the Ratio EC50 (HEK293) is reported as > 2800 and the Activity [1] is reported as “inactive”.

In the case of `CCCCC(NC(=O)[C@@H](CCC(=O)O)NC(=O)[C@@H](CC(=O)O)NC(=O)[C@@H](CO)NC(=O)[C@@H](Cc1ccccc1)NC(=O)[C@@H](CO)NC(=O)CNC(=O)[C@@H](CC(=O)O)NC(=O)CNC(=O)[C@@H](N)Cc1cnc[nH]1)C(=O)N[C@H](CC(N)=O)C(=O)N[C@@H](C(=O)N[C@@H](C(=O)N[C@H](CC(C)C)C(=O)N[C@H](CC(=O)O)C(=O)NC(Cc1ccc2ccccc2c1)C(=O)N[C@@H](CC(C)C)C(=O)N[C@@H](C)C(=O)N[C@@H](C)C(=O)N[C@@H](CCCNC(=N)N)C(=O)N[C@@H](CC(=O)O)C(=O)N[C@@H](Cc1ccccc1)C(=O)N[C@H](C(=O)N[C@@H](CC(N)=O)C(=O)N[C@H](Cc1c[nH]c2ccccc12)C(=O)N[C@H](CC(C)C)C(=O)N[C@@H](C(=O)N[C@H](CCC(N)=O)C(=O)N[C@@H](C(=O)N[C@@H](CCCCN)C(N)=O)[C@H](C)O)[C@@H](C)CC)[C@H](C)CC)[C@@H](C)CC)[C@H](C)O` (some centres undefined), the Ratio EC50 (HEK293) is reported as > 7600 and the Activity [1] is reported as “inactive”.

With `CCCCC(NC(=O)[C@@H](CCC(=O)O)NC(=O)[C@@H](CC(=O)O)NC(=O)[C@@H](CO)NC(=O)[C@@H](Cc1ccccc1)NC(=O)[C@@H](CO)NC(=O)CNC(=O)[C@@H](CC(=O)O)NC(=O)CNC(=O)[C@@H](N)Cc1cnc[nH]1)C(=O)N[C@H](CC(N)=O)C(=O)N[C@@H](C(=O)N[C@@H](C(=O)N[C@H](CC(C)C)C(=O)N[C@H](CC(=O)O)C(=O)NC(Cc1cccc2ccccc12)C(=O)N[C@@H](CC(C)C)C(=O)N[C@@H](C)C(=O)N[C@@H](C)C(=O)N[C@@H](CCCNC(=N)N)C(=O)N[C@@H](CC(=O)O)C(=O)N[C@@H](Cc1ccccc1)C(=O)N[C@H](C(=O)N[C@@H](CC(N)=O)C(=O)N[C@H](Cc1c[nH]c2ccccc12)C(=O)N[C@H](CC(C)C)C(=O)N[C@@H](C(=O)N[C@H](CCC(N)=O)C(=O)N[C@@H](C(=O)N[C@@H](CCCCN)C(N)=O)[C@H](C)O)[C@@H](C)CC)[C@H](C)CC)[C@@H](C)CC)[C@H](C)O` (some centres undefined) the Ratio EC50 (HEK293) was > 5200 and the Activity [1] was “inactive”.

For `CCCCC(NC(=O)[C@H](CCC(=O)O)NC(=O)[C@H](CC(=O)O)NC(=O)[C@H](CO)NC(=O)[C@H](Cc1ccccc1)NC(=O)[C@H](CO)NC(=O)CNC(=O)[C@H](CC(=O)O)NC(=O)CNC(=O)[C@H](N)Cc1cnc[nH]1)C(=O)N[C@@H](CC(N)=O)C(=O)N[C@H](C(=O)N[C@H](C(=O)N[C@@H](CC(C)C)C(=O)N[C@@H](CC(=O)O)C(=O)NC(Cc1ccc(N)cc1)C(=O)N[C@H](CC(C)C)C(=O)N[C@H](C)C(=O)N[C@H](C)C(=O)N[C@H](CCCNC(=N)N)C(=O)N[C@H](CC(=O)O)C(=O)N[C@H](Cc1ccccc1)C(=O)N[C@@H](C(=O)N[C@H](CC(N)=O)C(=O)N[C@@H](Cc1c[nH]c2ccccc12)C(=O)N[C@@H](CC(C)C)C(=O)N[C@H](C(=O)N[C@@H](CCC(N)=O)C(=O)N[C@H](C(=O)N[C@H](CCCCN)C(N)=O)[C@@H](C)O)[C@H](C)CC)[C@@H](C)CC)[C@H](C)CC)[C@@H](C)O` (some centres undefined), the Ratio EC50 (HEK293) was > 7600 and the Activity [1] was “inactive”.

In the case of `CCCCC(NC(=O)[C@H](CCC(=O)O)NC(=O)[C@H](CC(=O)O)NC(=O)[C@H](CO)NC(=O)[C@H](Cc1ccccc1)NC(=O)[C@H](CO)NC(=O)CNC(=O)[C@H](CC(=O)O)NC(=O)CNC(=O)[C@@H](N)Cc1cnc[nH]1)C(=O)N[C@@H](Cc1c[nH]c2ccccc12)C(=O)N[C@H](C(=O)N[C@H](C(=O)N[C@@H](CC(C)C)C(=O)N[C@@H](CC(=O)O)C(=O)N[C@@H](CC(N)=O)C(=O)N[C@@H](CC(C)C)C(=O)N[C@@H](C)C(=O)N[C@@H](C)C(=O)N[C@@H](CCCNC(=N)N)C(=O)N[C@@H](CC(=O)O)C(=O)N[C@@H](Cc1ccccc1)C(=O)N[C@H](C(=O)N[C@@H](CC(N)=O)C(=O)N[C@@H](Cc1c[nH]c2ccccc12)C(=O)N[C@@H](CC(C)C)C(=O)N[C@H](C(=O)N[C@@H](CCC(N)=O)C(=O)N[C@H](C(=O)N[C@@H](CCCCN)C(N)=O)[C@@H](C)O)[C@@H](C)CC)[C@@H](C)CC)[C@@H](C)CC)[C@@H](C)O` (some centres undefined), the clearance [2] is reported as 0.71 mL/min/kg, the EC50 [3] is reported as 0.21 nM and the Activity [4] is reported as “inactive”. For the same molecule, the Ratio EC50 (HEK293) was 260, the Efficacy [5] was 35% and the EC50 [6] was 56 nM.

With `CCCCC(NC(=O)[C@H](CCC(=O)O)NC(=O)[C@H](CC(=O)O)NC(=O)[C@H](CO)NC(=O)[C@H](Cc1ccccc1)NC(=O)[C@H](CO)NC(=O)CNC(=O)[C@H](CC(=O)O)NC(=O)CNC(=O)[C@@H](N)Cc1cnc[nH]1)C(=O)N[C@H](Cc1ccc(O)cc1)C(=O)N[C@H](C(=O)N[C@H](C(=O)N[C@@H](CC(C)C)C(=O)N[C@@H](CC(=O)O)C(=O)N[C@@H](CC(N)=O)C(=O)N[C@@H](CC(C)C)C(=O)N[C@@H](C)C(=O)N[C@@H](C)C(=O)N[C@@H](CCCNC(=N)N)C(=O)N[C@@H](CC(=O)O)C(=O)N[C@@H](Cc1ccccc1)C(=O)N[C@H](C(=O)N[C@@H](CC(N)=O)C(=O)N[C@@H](Cc1c[nH]c2ccccc12)C(=O)N[C@@H](CC(C)C)C(=O)N[C@H](C(=O)N[C@@H](CCC(N)=O)C(=O)N[C@H](C(=O)N[C@@H](CCCCN)C(N)=O)[C@@H](C)O)[C@@H](C)CC)[C@@H](C)CC)[C@@H](C)CC)[C@@H](C)O` (some centres undefined) the clearance [2] was 4.9 mL/min/kg, the EC50 [3] was 0.18 nM and the Activity [4] was “inactive”. The Ratio EC50 (HEK293) was 170, the Efficacy [5] was 68% and the EC50 [6] was 32 nM.

With `CCCCC(NC(=O)[C@H](CCC(=O)O)NC(=O)[C@H](CC(=O)O)NC(=O)[C@H](CO)NC(=O)[C@H](Cc1ccccc1)NC(=O)[C@H](CO)NC(=O)CNC(=O)[C@H](CC(=O)O)NC(=O)CNC(=O)[C@H](N)Cc1cnc[nH]1)C(=O)N[C@@H](CC(N)=O)C(=O)N[C@H](C(=O)N[C@H](C(=O)N[C@@H](CC(C)C)C(=O)N[C@@H](CC(=O)O)C(=O)NC(CC1CCCCC1)C(=O)N[C@H](CC(C)C)C(=O)N[C@H](C)C(=O)N[C@H](C)C(=O)N[C@H](CCCNC(=N)N)C(=O)N[C@H](CC(=O)O)C(=O)N[C@H](Cc1ccccc1)C(=O)N[C@@H](C(=O)N[C@H](CC(N)=O)C(=O)N[C@@H](Cc1c[nH]c2ccccc12)C(=O)N[C@@H](CC(C)C)C(=O)N[C@H](C(=O)N[C@@H](CCC(N)=O)C(=O)N[C@H](C(=O)N[C@H](CCCCN)C(N)=O)[C@@H](C)O)[C@H](C)CC)[C@@H](C)CC)[C@H](C)CC)[C@@H](C)O` (some centres undefined) the Ratio EC50 (HEK293) was > 10000 and the Activity [1] was “inactive”.
